In patent US20090325959A1 (priority 2008, published 2009):
Where two headings read alike, the source gives them in different places.

Key:
[1] = test system: A-10 rat thoracic aorta cells; experiment: PDGF-stimulated smooth muscle cell proliferation assay (BrdU incorporation); type: cell-based; details: A-10 cells, 10 ng/mL PDGF, BrdU incorporation, percent of total challenge-stimulated proliferation; for Percent of PDGF Induced Proliferation at 1 μM Avg: 1 μM test compound; for Percent of PDGF Induced Proliferation at 10 μM Avg: 10 μM test compound;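 for all read-outs here: cells kept in serum-free medium, BrdU allowed to incorporate for 24 h, then incorporated label detected fluorometrically with an anti-BrdU antibody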
[2] = Compound plasma concentrations in unsensitized mice at 15 min post administration; type: in vivo; details: mouse, 15 μmol/kg; mean compound plasma concentration in mice at 15 minutes post oral administration; read-out: Mouse Oral PK
[3] = target: T1, p70S6K human enzyme (Homo sapiens, UniProt P23443, T412E); experiment: p70S6K inhibition assay (IMAP FP); type: biochemical;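 note: kinase reaction run at room temperature, phosphorylated substrate captured on IMAP beads and read as fluorescence polarization in mP, IC50 then converted to Ki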
T1 construct: purchased Upstate Chemicon 14-486

[4] = target: T2, Akt3 human enzyme (Homo sapiens, UniProt Q9Y243); experiment: Akt3 inhibition assay (IMAP FP); type: biochemical;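 note: kinase reaction run 60 min at room temperature after 30 µM ATP start, phosphorylated substrate captured on IMAP beads and read as fluorescence polarization (mP)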
T2 construct: purchased Upstate Chemicon 14-502

[5] = target: T3, ROCK2 (Homo sapiens, UniProt O75116); experiment: Rho kinase inhibition assay (IMAP fluorescence polarization), ROCK2; type: biochemical;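 note: kinase reaction started with 10 µM ATP and run 60 min at room temperature, then phosphorylated substrate captured on IMAP beads for 30 min and fluorescence polarization read in mP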
T3 construct: purchased Upstate/Chemicon 14-451
Experimental: (§1) Following the pre-incubation, 10 μM ATP was added to initiate the reaction. After 60 minutes at room temperature, Molecular Devices IMAP™ binding solution was added to bind phosphorylated substrate. After 30 minutes of incubation in the presence of the IMAP™ beads, the fluorescence polarization was read and the ratio was reported as mP. IC50 values for compounds and EC50 values for ATP were calculated using the Prism software from Graphpad.

[6] = target: T4, ROCK1 (Homo sapiens, UniProt Q13464); experiment: Rho kinase inhibition assay (IMAP fluorescence polarization), ROCK1; type: biochemical;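 note: kinase reaction run 60 min at room temperature, then phosphorylated substrate captured on IMAP beads for 30 min, with fluorescence polarization read in mP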
T4 construct: purchased Upstate/Chemicon 14-601
Experimental: as §1

[7] = 30 μM ATP, Ki=IC50/(1+([ATP Challenge]/EC50 ATP)), read-out: p70S6K Ki, Avg
[8] = average Ki, read-out: p70S6K Ki
[9] = 30 μM ATP, Ki=IC50/(1+([ATP Challenge]/EC50 ATP)), read-out: Akt3 Ki, Avg
[10] = 10 μM ATP, read-out: ROCK2 Ki, Avg

T2 sequence (Q9Y243 whole entry): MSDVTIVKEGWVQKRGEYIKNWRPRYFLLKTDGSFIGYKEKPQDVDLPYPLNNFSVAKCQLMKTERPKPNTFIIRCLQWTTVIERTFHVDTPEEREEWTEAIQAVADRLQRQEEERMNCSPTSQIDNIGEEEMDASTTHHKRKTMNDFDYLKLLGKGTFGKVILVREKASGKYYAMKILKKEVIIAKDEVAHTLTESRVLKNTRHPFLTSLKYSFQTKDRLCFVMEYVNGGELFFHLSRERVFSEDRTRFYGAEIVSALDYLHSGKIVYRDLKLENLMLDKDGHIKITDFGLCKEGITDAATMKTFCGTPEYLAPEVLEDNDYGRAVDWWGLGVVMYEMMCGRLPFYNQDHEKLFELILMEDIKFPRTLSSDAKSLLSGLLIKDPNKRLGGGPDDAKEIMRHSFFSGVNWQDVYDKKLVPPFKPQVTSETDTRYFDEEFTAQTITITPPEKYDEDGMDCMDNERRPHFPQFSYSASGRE
T4 sequence (Q13464 17-535 limits assumed): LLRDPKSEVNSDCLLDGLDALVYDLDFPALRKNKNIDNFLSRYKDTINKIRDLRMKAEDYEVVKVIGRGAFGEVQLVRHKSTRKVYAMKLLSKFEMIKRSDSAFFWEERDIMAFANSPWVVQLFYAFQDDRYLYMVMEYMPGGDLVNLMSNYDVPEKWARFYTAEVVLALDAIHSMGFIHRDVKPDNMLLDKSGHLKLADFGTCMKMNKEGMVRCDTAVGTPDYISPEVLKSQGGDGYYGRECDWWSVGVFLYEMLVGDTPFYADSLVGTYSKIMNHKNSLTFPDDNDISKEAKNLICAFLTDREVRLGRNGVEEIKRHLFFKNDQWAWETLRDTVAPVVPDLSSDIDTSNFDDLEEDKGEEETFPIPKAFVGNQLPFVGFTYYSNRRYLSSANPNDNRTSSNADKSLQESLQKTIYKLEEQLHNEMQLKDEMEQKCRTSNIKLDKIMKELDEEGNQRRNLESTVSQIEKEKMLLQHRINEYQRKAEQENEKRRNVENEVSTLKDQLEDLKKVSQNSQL
T3 sequence (O75116 11-552 limits assumed): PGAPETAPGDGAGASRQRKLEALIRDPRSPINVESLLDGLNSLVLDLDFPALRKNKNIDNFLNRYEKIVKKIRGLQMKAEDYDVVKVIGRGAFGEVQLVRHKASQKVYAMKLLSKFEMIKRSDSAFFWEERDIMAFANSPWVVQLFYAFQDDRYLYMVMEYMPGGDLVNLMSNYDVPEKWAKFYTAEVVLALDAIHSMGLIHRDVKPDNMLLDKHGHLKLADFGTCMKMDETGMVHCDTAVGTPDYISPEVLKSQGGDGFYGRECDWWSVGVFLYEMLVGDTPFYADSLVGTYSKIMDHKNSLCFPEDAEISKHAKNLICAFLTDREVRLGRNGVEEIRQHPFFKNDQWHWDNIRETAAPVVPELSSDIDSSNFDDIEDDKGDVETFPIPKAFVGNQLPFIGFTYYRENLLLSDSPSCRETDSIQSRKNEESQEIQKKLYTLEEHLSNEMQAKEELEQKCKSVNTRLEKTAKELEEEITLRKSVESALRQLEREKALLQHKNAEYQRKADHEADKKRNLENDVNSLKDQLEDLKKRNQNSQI
T1 sequence (P23443 1-421 T412E limits assumed): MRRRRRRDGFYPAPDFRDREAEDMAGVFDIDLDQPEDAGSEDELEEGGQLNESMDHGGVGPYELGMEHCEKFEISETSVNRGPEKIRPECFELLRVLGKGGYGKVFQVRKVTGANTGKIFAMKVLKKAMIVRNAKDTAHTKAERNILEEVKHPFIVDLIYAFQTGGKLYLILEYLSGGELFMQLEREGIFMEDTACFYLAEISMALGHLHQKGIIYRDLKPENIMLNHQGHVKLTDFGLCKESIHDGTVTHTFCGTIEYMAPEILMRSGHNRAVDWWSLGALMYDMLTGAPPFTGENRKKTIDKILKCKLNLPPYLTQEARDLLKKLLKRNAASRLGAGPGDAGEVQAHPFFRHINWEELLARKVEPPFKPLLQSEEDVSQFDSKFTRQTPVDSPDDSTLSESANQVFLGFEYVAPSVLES

SMILES	Percent of PDGF Induced Proliferation at 1 μM Avg [1] [%]	Percent of PDGF Induced Proliferation at 10 μM Avg [1] [%]	concentration at 15 min [2] [nM]	Ki [3, 7] [nM]	Ki [3, 8] [nM]	Ki [4, 9] [nM]	Ki ([4]; average Ki, read-out: Akt3 Ki) [nM]	Ki [5, 10] [nM]	Ki ([5]; average Ki, read-out: ROCK2 Ki) [nM]	Ki ([6]; Avg, 10 μM ATP) [nM]	Ki ([6]; average Ki) [nM]
C#Cc1ccc(CN2CCC[C@@H](Nc3ccc4[nH]ncc4c3)C2)cc1 [Compound 1.076, (R)-N-(1-(4-ethynylbenzyl)piperidin-3-yl)-1H-indazol-5-amine]	84.0	53.7	1720	414	414	241	241	2.6	2.6	14.3	14.3
Clc1ccc(CN2CCC[C@@H](Nc3ccc4[nH]ncc4c3)C2)cc1 [Compound 1.132, (R)-N-(1-(4-chlorobenzyl)piperidin-3-yl)-1H-indazol-5-amine]	48.9	30.3	982	515	515	81.8	81.8	3.5	3.5	22.5	22.5
c1cc2ccc(CN3CCC[C@H](Nc4ccc5[nH]ncc5c4)C3)cc2[nH]1 [Compound 1.148, (S)-N-(1-((1H-indol-6-yl)methyl)piperidin-3-yl)-1H-indazol-5-amine]	56.9	63.5	767	436	436	1130	1130	3.6	3.6	24.3	24.3
Cc1ccc(CN2CCC[C@H](Nc3ccc4[nH]ncc4c3)C2)cc1O [Compound 1.151, (S)-5-((3-(1H-indazol-5-ylamino)piperidin-1-yl)methyl)2-methylphenol]	51.0	63.8	–	531	–	709	–	2.9	–	22.8	–
NC(=O)Cn1ccc2cc(CN3CCC[C@H](Nc4ccc5[nH]ncc5c4)C3)ccc21 [Compound 1.165, (S)-2-(5-((3-(1H-indazol-5-ylamino)piperidin-1-yl)methyl)-1H-indol-1-yl)acetamide]	74.8	57.9	94	1630	1630	4140	4140	3.4	3.4	50.7	50.7
FC(F)(F)c1ccc(CN2CCC[C@H](Nc3ccc4[nH]ncc4c3)C2)cc1 [Compound 1.167, (S)-N-(1-(4-(trifluoromethyl)benzyl)piperidin-3-yl)-1H-indazol-5-amine]	78.8	52.7	–	1070	–	8250	–	18.5	–	119	–
Cc1ccc(CN2CCC[C@@H](Nc3ccc4[nH]ncc4c3)C2)cc1O [Compound 1.173, (R)-5-((3-(1H-indazol-5-ylamino)piperidin-1-yl)methyl)-2-methylphenol]	55.4	35.8	144	340	340	157	157	3.6	3.6	15.1	15.1
c1cc2cc(CN3CCC[C@H](Nc4ccc5[nH]ncc5c4)C3)ccc2s1 [Compound 1.175, (S)-N-(1-(benzo[b]thiophen-5-ylmethyl)piperidin-3-yl)-1H-indazol-5-amine]	58.2	49.0	1130	853	853	2820	2820	7.6	7.6	65.9	65.9
CC(C)c1ccc(CN2CCC[C@H](Nc3ccc4[nH]ncc4c3)C2)cc1 [Compound 1.180, (S)-N-(1-(4-isopropylbenzyl)piperidin-3-yl)-1H-indazol-5-amine]	92.4	64.8	–	1030	–	12000	–	23.1	–	138	–
CC(=O)NCc1cccc(CN2CCC[C@H](Nc3ccc4[nH]ncc4c3)C2)c1 [Compound 1.197]	52.5	48.9	453	8690	8690	64100	64100	5	5	120	120
CC(C)c1ccc(CN2CCC[C@@H](Nc3ccc4[nH]ncc4c3)C2)cc1 [Compound 1.204, (R)-N-(1-(4-isopropylbenzyl)piperidin-3-yl)-1H-indazol-5-amine]	79.3	42.8	–	927	–	1910	–	31.9	–	196	–
CSc1ccc(CN2CCCC(Nc3cccc4cnccc34)C2)cc1 (stereo not drawn) [Compound 2.009, N-(1-(4-(methylthio)benzyl)piperidin-3-yl)isoquinolin-5-amine]	128.9	56.5	–	1280	–	3730	–	–	–	–	–
c1cc(N[C@@H]2CCN(Cc3ccc(C4CC4)cc3)C2)c2ccncc2c1 [Compound 2.022, (R)-N-(1-(4-cyclopropylbenzyl)pyrrolidin-3-yl)isoquinolin-5-amine]	89.7	39.4	–	501	–	4120	–	15.3	–	44.8	–
Clc1ccc(CN2CC[C@@H](Nc3cccc4cnccc34)C2)cc1 [Compound 2.027, (R)-N-(1-(4-chlorobenzyl)pyrrolidin-3-yl)isoquinolin-5-amine]	79.4	64.4	–	509	–	658	–	7.4	–	15.7	–
c1cc(N[C@@H]2CCN(Cc3ccc4occc4c3)C2)c2ccncc2c1 [Compound 2.055, (R)-N-(1-(benzofuran-5-ylmethyl)pyrrolidin-3-yl)isoquinolin-5-amine]	–	–	656	312	312	978	978	6.4	6.4	16	16
OCCn1ccc2ccc(CN3CC[C@@H](Nc4cccc5cnccc45)C3)cc21 [Compound 2.060, (R)-2-(6-((3-(isoquinolin-5-ylamino)pyrrolidin-1-yl)methyl)-1H-indol-1-yl)ethanol]	–	–	308	181	181	329	329	3.2	3.2	4.9	4.9
